Measured values taken from publication PMC6453917, “On resin click-chemistry-mediated synthesis of novel enkephalin analogues with potent anti-nociceptive activity” (Scientific Reports, 2019).
Where two headings read alike, the source gives them in different places. Where a SMILES comes first, the peptide text is derived from it. Bridges are numbered along the chain shown (N, C = ends). Triazole bridges read from a SMILES are 1,4-linked. [ ]: non-standard residue; d: D form. dDap(N3) = [N-]=[N+]=NC[C@@H](N)C(=O)O; dPra = C#CC[C@@H](N)C(=O)O

Columns and labels:
[1] = system: DOP; conditions: read-out: IC50 in the MVD assay; DOP agonist activity; cited from earlier work
[2] = system: MOP; conditions: MOP agonist activity; read-out: IC50 in the GPI assay; cited from earlier work
[3] = design: method as in PMID 25755050; conditions: cited from earlier work
[4] = design: method as in PMID 25755050; conditions: compared with morphine; cited from earlier work
[5] = system: CD-1 male mice; test: Hot plate test (thermal nociception); assay type: in vivo; conditions: i.v., 23 μmol.kg−1, mice
[6] = cited from earlier work
[7] = system: CD-1 male mice; test: Formalin test; assay type: in vivo; conditions: s.c., 100 nmol, 15 min before formalin
Text: The formalin test involves moderate and continuous pain generated by an injured tissue, and the measured response is the time the animals spend licking the injected paw. […] The early phase is caused predominantly by δ-fiber activation, due to a direct effect on nociceptors, while the late phase appears to be an inflammatory response, involving the unmyelinated C-fibre[44].
CD-1 male mice (Harlan, Italy) weighing 25–30 g were used in all the experiments. Before the experimental sessions, the mice were maintained in colony, housed in cages (7 mice per cage) under standard light/dark cycle (from 7:00 AM to 7:00 PM), temperature (21 ± 1 °C) and relative humidity (60 ± 10%) for at least 1 week. Food and water were available ad libitum. […]
Subcutaneous injection of a dilute solution of formalin (1%, 20 μL/paw) into the mice hind paw evoked nociceptive behavioural responses, such as licking, biting the injected paw or both, which are considered indices of nociception. […] The total time the animal spent licking or biting its paw during the early and late phase of formalin-induced nociception was recorded. […]

[8] = target: T1, human KOP (Homo sapiens, UniProt P41145); test: 35S-GTPγS coupling assay, KOP; assay type: biochemical; design: Emax: dose or concentration left out as unconfirmed; conditions: for Emax: read-out: KOP EMax (in parentheses)
T1 construct: expressed in transfected cells; host or cells: CHO cells (membrane preparations)

[9] = target: T1, human KOP; test: Competition radioligand binding vs 3H-diprenorphine, KOP
[10] = Plasma stability assay; assay type: in vitro ADME; conditions: human plasma, 37 °C, read-out: degradation half-life (t1/2)
Experimental: A plasma stability assay was performed by incubation of compounds in human plasma at a chosen initial concentration (i.e. 5 μM) at 37 °C. The aliquots of the incubated plasma samples were taken at T0 (at the beginning) and at T2 (after 4 hours). Collected samples were spiked with cold acetonitrile to precipitate proteins and prevent the compound from further decomposition. The assay was repeated in triplicate. Plasma aliquots were centrifuged and the supernatant collected and analyzed by LC-MS technique. The instrument responses were referenced to the zero time-point sample (as 100%) in order to determine the percentage of compound remaining after incubation at a given time point. The half-life parameter was calculated from linear regression of time course data.
Plasma and working solutions of experimental and control compounds (at appropriate concentrations) were warmed to 37 °C. 99 µL of plasma was dispensed into a pre-labeled 96-well plate (in triplicate per time-point). Then 1 µL of test compound and reference compound were transferred to wells filled by plasma. 200 µL of cold acetonitrile was added immediately into wells marked as the ‘0’ time point to precipitate proteins and prevent compound from biotransformation. Plates were incubated in a thermostatic shaker at 37 °C while shaken at 350 rpm. […] Samples were analyzed using an LC-MS technique.

[11] = BBB PAMPA assay (porcine brain lipids)
[12] = design: method as in PMID 29513114; conditions: cited from earlier work

cyclo(N^ε,N^β’-carbonyl-D-Lys^2,Dap^5)-enkephalinamide
IC50 [1]: 0.65 nM | IC50 [2]: 0.21 nM

Tyr-c^2,4[DLys-Phe-Dab]-CH2CH2NHCONH2
enzymatic degradation [3]: resistant to enzymatic degradation | antinociceptive response [4]: stronger antinociceptive response than that of morphine

CC1(C)SSC(C)(C)[C@@H](NC(=O)[C@@H](N)Cc2ccc(O)cc2)C(=O)NCC(=O)N[C@@H](Cc2ccccc2)C(=O)N[C@H]1C(=O)O [DPDPE, (D-Pen^2,D-Pen^5)-Enkephalin]
antinociceptive effect (nociceptive threshold), hot plate [5]: ineffective | antinociception after i.c.v. administration ([6]; i.c.v.): slightly active until 45 min | antinociception after s.c. administration ([6]; s.c.): completely inactive | antinociceptive effect, formalin test, early and late phase [7]: slight but not significant antinociceptive effect

NC(=O)[C@H]1Cn2cc(nn2)C[C@@H](NC(=O)[C@@H](N)Cc2ccc(O)cc2)C(=O)NCC(=O)N[C@@H](Cc2ccccc2)C(=O)N1 [NOVA1, H-Tyr-c[DPra-Gly-Phe-DAza]-NH2 triazole] (H-Y[dPra]GF[dDap(N3)]-NH2; triazole 2-5)
EC50 [8]: > 3330 nM | Emax [8]: 56.7 ± 5.4% | Ki [9]: > 3330 nM

NC(=O)[C@H]1Cc2cn(nn2)C[C@@H](NC(=O)[C@@H](N)Cc2ccc(O)cc2)C(=O)NCC(=O)N[C@@H](Cc2ccccc2)C(=O)N1 [NOVA2, H-Tyr-c[DAza-Gly-Phe-DPra]-NH2 triazole] (H-Y[dDap(N3)]GF[dPra]-NH2; triazole 2-5)
EC50 [8]: > 3330 nM | Emax [8]: 68.3 ± 5% | half-life at 5 μM [10]: > 4 h | Mean (%) Mass balance ([11]; PAMPA): 102.22% | Pe value relative to negative control theophylline ([11]; PAMPA): two-fold higher | Classification ([11]; PAMPA BBB permeation class): Low permeation (Pe<2.0→lowpermeation) | Ki [9]: > 3330 nM

Dmt-c[D-Lys-Phe-p-CF3-Phe-Asp]NH2 [F18]
Classification ([12]; PAMPA BBB permeation class): Low permeation (Pe<2.0→lowpermeation) | Mean (%) Mass balance ([12]; PAMPA): 95.75%
